ChEMBL document CHEMBL1201862, “PubChem BioAssay data set” (2004)
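Grown in 96-well plates, cells were treated for 48 hours with each compound at five concentrations. Insufficient inhibition: endpoint recorded as highest concentration tested. Abbreviation: GI50, concentration required for 50% inhibition of growth.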 Active and inactive are the calls of the source. Rule as the data show it: active = GI50 up to about 1.1 µM and inactive = higher.

Assays:
Assay in all cases: inhibition of tumour cell growth, NCI panel, 48 h
SF-268 = tested on: SF-268
NCI-H522 = tested on: NCI-H522
786-0 = tested on: 786-0
HCT-15 = tested on: HCT-15
HT-29 = tested on: HT-29
DU-145 = tested on: DU-145
HCC 2998 = tested on: HCC 2998
RXF 393 = tested on: RXF 393
NCI-H226 = tested on: NCI-H226
T47D = tested on: T47D
Malme-3M = tested on: Malme-3M
SR = tested on: SR
TK-10 = tested on: TK-10
MDA-N = tested on: MDA-N
SNB-19 = tested on: SNB-19
SN12C = tested on: SN12C
NCI-H460 = tested on: NCI-H460
CCRF-CEM = tested on: CCRF-CEM
PC-3 = tested on: PC-3
MCF7 = tested on: MCF7

SMILES	GI50 (SF-268)	GI50 (NCI-H522)	GI50 (786-0)	GI50 (HCT-15) [µM]	GI50 (HT-29)	GI50 (DU-145)	GI50 (HCC 2998)	GI50 (RXF 393)	GI50 (NCI-H226)	GI50 (T47D)	GI50 (Malme-3M)	GI50 (SR)	GI50 (TK-10)	GI50 (MDA-N)	GI50 (SNB-19)	GI50 (SN12C)	GI50 (NCI-H460)	GI50 (CCRF-CEM)	GI50 (PC-3)	GI50 (MCF7)
COc1ccc(/C(Cl)=C(\CNc2ccccn2)c2ccccc2)cc1OC	> 100 µM (inactive)	99.8 µM (inactive)	> 100 µM (inactive)	> 100	> 100 µM (inactive)	> 100 µM (inactive)	> 100 µM (inactive)	> 100 µM (inactive)	> 100 µM (inactive)	> 100 µM (inactive)	> 100 µM (inactive)	> 100 µM (inactive)	> 100 µM (inactive)	> 100 µM (inactive)	> 100 µM (inactive)	> 100 µM (inactive)	> 100 µM (inactive)	> 100 µM (inactive)	> 100 µM (inactive)	–
C1CCCN(NC2=NCCO2)CC1	–	> 100 µM (inactive)	> 100 µM (inactive)	> 100	> 100 µM (inactive)	–	> 100 µM (inactive)	> 100 µM (inactive)	> 100 µM (inactive)	> 100 µM (inactive)	> 100 µM (inactive)	> 100 µM (inactive)	> 100 µM (inactive)	> 100 µM (inactive)	> 100 µM (inactive)	> 100 µM (inactive)	> 100 µM (inactive)	> 100 µM (inactive)	> 100 µM (inactive)	> 100 µM (inactive)
Cc1nc(N)c(N2CCN(S(N)(=O)=O)CC2)c(O)n1	> 100 µM (inactive)	> 100 µM (inactive)	> 100 µM (inactive)	> 100	> 100 µM (inactive)	> 100 µM (inactive)	> 100 µM (inactive)	–	> 100 µM (inactive)	> 100 µM (inactive)	> 100 µM (inactive)	> 100 µM (inactive)	> 100 µM (inactive)	–	> 100 µM (inactive)	> 100 µM (inactive)	> 100 µM (inactive)	> 100 µM (inactive)	> 100 µM (inactive)	> 100 µM (inactive)
CC(C)=Cc1cc(CCC/C(C)=C/Cc2c(O)cc(C)c(C(=O)O)c2O)co1	> 100 µM (inactive)	12.9 µM (inactive)	> 100 µM (inactive)	> 100	> 100 µM (inactive)	> 100 µM (inactive)	> 100 µM (inactive)	–	–	67.1 µM (inactive)	–	–	> 100 µM (inactive)	–	> 100 µM (inactive)	> 100 µM (inactive)	> 100 µM (inactive)	32.1 µM (inactive)	> 100 µM (inactive)	> 100 µM (inactive)
CC1(C)CC2(C)CC1CC2(O)c1ccccc1 (centres undefined)	> 100 µM (inactive)	> 100 µM (inactive)	> 100 µM (inactive)	–	> 100 µM (inactive)	> 100 µM (inactive)	–	> 100 µM (inactive)	> 100 µM (inactive)	> 100 µM (inactive)	> 100 µM (inactive)	> 100 µM (inactive)	> 100 µM (inactive)	> 100 µM (inactive)	> 100 µM (inactive)	> 100 µM (inactive)	> 100 µM (inactive)	> 100 µM (inactive)	> 100 µM (inactive)	–
O=C1C(c2c(O)[nH]c3ccc(F)cc23)=Nc2ccccc21	15.1 µM (inactive)	> 100 µM (inactive)	4.85 µM (inactive)	> 100	> 100 µM (inactive)	> 100 µM (inactive)	> 100 µM (inactive)	3.19 µM (inactive)	> 100 µM (inactive)	–	> 100 µM (inactive)	> 100 µM (inactive)	22.1 µM (inactive)	> 100 µM (inactive)	26.5 µM (inactive)	> 100 µM (inactive)	> 100 µM (inactive)	28 µM (inactive)	> 100 µM (inactive)	6.56 µM (inactive)
Cc1ccc(-c2n[nH]c(CC#N)n2)cc1	> 100 µM (inactive)	> 100 µM (inactive)	> 100 µM (inactive)	66.1	> 100 µM (inactive)	> 100 µM (inactive)	> 100 µM (inactive)	> 100 µM (inactive)	–	> 100 µM (inactive)	> 100 µM (inactive)	> 100 µM (inactive)	> 100 µM (inactive)	–	0.608 µM (active)	> 100 µM (inactive)	> 100 µM (inactive)	> 100 µM (inactive)	> 100 µM (inactive)	> 100 µM (inactive)
Cc1cc(C(C)C)cc(=O)c(O)c1	> 100 µM (inactive)	> 100 µM (inactive)	> 100 µM (inactive)	> 100	> 100 µM (inactive)	–	> 100 µM (inactive)	> 100 µM (inactive)	> 100 µM (inactive)	–	> 100 µM (inactive)	> 100 µM (inactive)	> 100 µM (inactive)	–	> 100 µM (inactive)	> 100 µM (inactive)	> 100 µM (inactive)	> 100 µM (inactive)	–	–
